In US7786129B2, “Piperazine derivatives of dialkyl oxindoles” (Egis Gyogyszergyar Nyrt, priority 2004, dated 2010):
Counter-ions that a name gives are not always drawn.

Row | Compound | melting point
1 | CCC1(CCCCCCN2CCN(c3cccc(Cl)c3)CC2)C(=O)Nc2ccccc21.Cl (centres unmarked) | 124 to 127 °C
2 | CCC1(CCCCN2CCN(c3cccc(Cl)c3)CC2)C(=O)Nc2ccccc21 (centres unmarked) (as salt: HCl) (hydrate or solvate) [Example 60, 3-{4-[4-(3-Chlorophenyl)-piperazin-1-yl]-butyl}-3-ethyl-1,3-dihydro-2H-indol-2-one-H2O—HCl-isopropanol (1:1:1:1)] | 109 to 111 °C
3 | CCC1(CCCCN2CCN(c3cccc(Cl)c3)CC2)C(=O)Nc2cc(F)c(Cl)cc21 (centres unmarked) (as salt: hydrochloride) [Example 89, 5-Chloro-3-{4-[4-(3-chlorophenyl)-piperazin-1-yl]-butyl}-3-ethyl-6-fluoro-1,3-dihydro-2H-indol-2-one monohydrochloride] | 237 to 239 °C
4 | CCC1(CCCCN2CCN(c3ccc(Cl)c(C(F)(F)F)c3)CC2)C(=O)Nc2ccccc21 (centres unmarked) (as salt: hydrochloride) [Example 96, 3-{4-[4-(4-Chloro-3-trifluoromethyl-phenyl)-piperazin-1-yl]-butyl}-3-ethyl-1,3-dihydro-2H-indol-2-one monohydrochloride] | 204 to 206 °C
5 | CCC1(CCCCN2CCN(c3cccc(Cl)c3)CC2)C(=O)Nc2ccc(Br)cc21 (centres unmarked) (as salt: oxalate) [Example 61, 5-Bromo-3-{4-[4-(3-chlorophenyl)-piperazin-1-yl]-butyl}-3-ethyl-1,3-dihydro-2H-indol-2-one monooxalate] | 200 to 202 °C
6 | CCC1(CCCCN2CCN(c3ccccc3)CC2)C(=O)Nc2ccccc21 (centres unmarked) (as salt: oxalate) [Example 68, 3-[4-(4-Phenylpiperazin-1-yl)-butyl]-3-ethyl-1,3-dihydro-2H-indol-2-one monooxalate] | 121 to 123 °C
7 | CCC1(CCCCN2CCN(c3ccccn3)CC2)C(=O)Nc2ccc(Cl)cc21 (centres unmarked) [Example 66, 5-Chloro-3-ethyl-3-[4-(4-pyridin-2-yl-piperazin-1-yl)-butyl]-1,3-dihydro-2H-indol-2-one] | 154 to 156 °C
8 | CCC1(CCCCN2CCN(c3cccc(Cl)c3)CC2)C(=O)Nc2ccc(Cl)cc21 (centres unmarked) [Example 67, 5-Chloro-3-{4-[4-(3-chlorophenyl)-piperazin-1-yl]-butyl}-3-ethyl-1,3-dihydro-2H-indol-2-one] | 139 to 142 °C
9 | CCC1(CCCCN2CCN(c3ccc(Cl)cc3)CC2)C(=O)Nc2ccc(C)cc21 (centres unmarked) [Example 73, 3-{4-[4-(4-Chlorophenyl)-piperazin-1-yl]-butyl}-3-ethyl-5-methyl-1,3-dihydro-2H-indol-2-one] | 175 to 177 °C
10 | CCC1(CCCCN2CCN(c3cccc(Cl)c3)CC2)C(=O)Nc2cc(F)ccc21 (centres unmarked) [Example 77, 3-{4-[4-(3-Chlorophenyl)-piperazin-1-yl]-butyl}-3-ethyl-6-fluoro-1,3-dihydro-2H-indol-2-one] | 116 to 117 °C
11 | CCC1(CCCCN2CCN(c3ccccn3)CC2)C(=O)Nc2ccc(C)cc21 (centres unmarked) [Example 80, 3-Ethyl-5-methyl-3-[4-(4-pyridin-2-yl-piperazin-1-yl)-butyl]-1,3-dihydro-2H-indol-2-one] | 168 to 170 °C
12 | CCC1(CCCCN2CCN(c3ccccc3Cl)CC2)C(=O)Nc2ccccc21 (centres unmarked) [Example 81, 3-{4-[4-(2-Chlorophenyl)-piperazin-1-yl]-butyl}-3-ethyl-1,3-dihydro-2H-indol-2-one] | 145 to 148 °C
13 | CCC1(CCCCN2CCN(c3cccc4c3OCCO4)CC2)C(=O)Nc2cc(F)ccc21 (centres unmarked) [Example 83, 3-{4-[4-(2,3-Dihydrobenzo[1,4]dioxin-5-yl)-piperazin-1-yl]-butyl}-3-ethyl-6-fluoro-1,3-dihydro-2H-indol-2-one] | 146 to 147 °C
14 | CCC1(CCCCN2CCN(c3ccccn3)CC2)C(=O)Nc2ccc(F)cc21 (centres unmarked) [Example 84, 3-Ethyl-5-fluoro-3-[4-(4-pyridin-2-yl-piperazin-1-yl)-butyl]-1,3-dihydro-2H-indol-2-one] | 144 to 147 °C
15 | CCC1(CCCCN2CCN(c3cccc(OC)c3)CC2)C(=O)Nc2ccccc21 (centres unmarked) [Example 91, 3-Ethyl-3-{4-[4-(3-methoxyphenyl)-piperazin-1-yl]-butyl}-1,3-dihydro-2H-indol-2-one] | 123 to 125 °C
16 | CCC1(CCCCCN2CCN(c3ccccn3)CC2)C(=O)Nc2ccccc21 (centres unmarked) [Example 93, 3-Ethyl-3-[5-(4-pyridin-2-yl-piperazin-1-yl)-pentyl]-1,3-dihydro-2H-indol-2-one] | 127 to 128 °C
17 | CCC1(CCCCN2CCN(c3ccc(F)c(Cl)c3)CC2)C(=O)Nc2ccccc21 (centres unmarked) [Example 100, 3-{4-[4-(3-Chloro-4-fluorophenyl)-piperazin-1-yl]-butyl}-3-ethyl-1,3-dihydro-2H-indol-2-one] | 121 to 124 °C
18 | CCC1(CCCCN2CCN(c3ccc(F)cc3)CC2)C(=O)Nc2ccc(F)cc21 (centres unmarked) [Example 111, 3-Ethyl-5-fluoro-3-{4-[4-(4-fluorophenyl)-piperazine-1-yl]-butyl}-1,3-dihydro-2H-indol-2-one] | 119 to 122 °C
19 | CCC1(CCCCN2CCN(c3ccc(F)cc3)CC2)C(=O)Nc2ccc(C)cc21 (centres unmarked) [Example 113, 3-Ethyl-3-{4-[4-(4-fluorophenyl)-piperazin-1-yl]-butyl}-5-methyl-1,3-dihydro-2H-indol-2-one] | 146 to 149 °C
20 | CCC1(CCCCN2CCN(c3cc(Cl)cc(Cl)c3)CC2)C(=O)Nc2ccc(F)cc21 (centres unmarked) [Example 114, 3-{4-[4-(3,5-dichlorophenyl)-piperazine-1-yl]-butyl}-3-ethyl-5-fluoro-1,3-dihydro-2H-indol-2-one] | 122 to 124 °C
21 | CCC1(CCCCN2CCN(c3ccc(F)cc3)CC2)C(=O)Nc2c(Cl)cc(F)cc21 (centres unmarked) [Example 119, 7-chloro-3-ethyl-5-fluoro-3-{4-[4-(4-fluorophenyl)-piperazin-1-yl]-butyl}-1,3-dihydro-2H-indol-2-one] | 161 to 162 °C
22 | CCC1(CCCCCN2CCN(c3ccc(Cl)cc3)CC2)C(=O)Nc2ccccc21 (centres unmarked) [Example 123, 3-{5-[4-(4-chlorophenyl)-piperazin-1-yl]-pentyl}-3-ethyl-1,3-dihydro-2H-indol-2-one] | 142 to 143 °C
23 | CCC1(CCCCN2CCN(c3ccc(Cl)c(Cl)c3)CC2)C(=O)Nc2c(Cl)cc(Cl)cc21 (centres unmarked) [Example 124, 5,7-dichloro-3-{4-[4-(3,4-dichlorophenyl)-piperazin-1-yl]-butyl}-3-ethyl-1,3-dihydro-2H-indol-2-one] | 164 to 165 °C
24 | CCC1(CCCCCN2CCN(c3ccc(Cl)cc3)CC2)C(=O)Nc2c(Cl)cc(Cl)cc21 (centres unmarked) [Example 125, 5,7-Dichloro-3-{5-[4-(4-chlorophenyl)-piperazin-1-yl]-pentyl}-3-ethyl-1,3-dihydro-2H-indol-2-one] | 145 to 148 °C

Results, then the molecule that gave them:

Row | melting point | Compound
25 | 121 to 124 °C | CCC1(CCCCN2CCN(c3cccc(Cl)c3)CC2)C(=O)Nc2ccc(F)cc21 (centres unmarked) (as salt: hydrochloride) [Example 85, 3-{4-[4-(3-Chlorophenyl)-piperazin-1-yl]-butyl}-3-ethyl-5-fluoro-1,3-dihydro-2H-indol-2-one mono-hydrochloride]
26 | 188 to 190 °C | CCC1(CCCCN2CCN(c3cccc(Cl)c3)CC2)C(=O)Nc2ccc(S(N)(=O)=O)cc21 (centres unmarked) (as salt: oxalate) [Example 72, 3-{4-[4-(3-Chlorophenyl)-piperazin-1-yl]-butyl}-3-ethyl-1,3-dihydro-2H-indol-2-one 5-sulfonamide monooxalate]
27 | 122 to 124 °C | CCC1(CCCN2CCN(c3ccccn3)CC2)C(=O)Nc2ccccc21 (centres unmarked) [Example 58, 3-Ethyl-3-[3-(4-pyridin-2-yl-piperazin-1-yl)-propyl]-1,3-dihydro-2H-indol-2-one]
28 | 109 to 110 °C | CCC1(CCCCN2CCN(c3ccc(OC)cc3)CC2)C(=O)Nc2ccccc21 (centres unmarked) [Example 74, 3-Ethyl-3-{4-[4-(4-methoxyphenyl)-piperazin-1-yl]-butyl}-1,3-dihydro-2H-indol-2-one]
29 | 103 to 106 °C | CCC1(CCCCN2CCN(c3ccc(C)c(Cl)c3)CC2)C(=O)Nc2ccccc21 (centres unmarked) [Example 99, 3-{4-[4-(3-Chloro-4-methylphenyl)-piperazin-1-yl]-butyl}-3-ethyl-1,3-dihydro-2H-indol-2-one]
30 | 119 to 120 °C | CCC1(CCCN2CCN(c3cccc(Cl)c3)CC2)C(=O)Nc2ccccc21 (centres unmarked) [Example 108, 3-{3-[4-(3-Chlorophenyl)-piperazin-1-yl]-propyl}-3-ethyl-1,3-dihydro-2H-indol-2-one]
31 | 152 to 155 °C | CCC1(CCCCN2CCN(c3ccc(Cl)c(Cl)c3)CC2)C(=O)Nc2ccc(F)cc21 (centres unmarked) [Example 115, 3-{4-[4-(3,4-dichlorophenyl)-piperazin-1-yl]-butyl}-3-ethyl-5-fluoro-1,3-dihydro-2H-indol-2-one]
32 | 186 to 188 °C | CCC1(CCCCN2CCN(c3ccc(Cl)cc3)CC2)C(=O)Nc2ccc(Cl)cc21 (centres unmarked) [Example 121, 5-chloro-3-{4-[4-(4-chlorophenyl)-piperazin-1-yl]-butyl}-3-ethyl-1,3-dihydro-indol-2-one]
33 | 194 to 197 °C | CCC1(CCCCN2CCN(c3ccc(Cl)cc3)CC2)C(=O)Nc2cc(F)c(Cl)cc21 (centres unmarked) [Example 122, 5-chloro-3-{4-[4-(4-chlorophenyl)-piperazin-1-yl]-butyl}-3-ethyl-6-fluoro-1,3-dihydro-2H-indol-2-one]
34 | 125 to 126 °C | CCC1(CCCCN2CCN(c3ccc(F)cc3Cl)CC2)C(=O)Nc2ccccc21 (centres unmarked) [Example 126, 3-{4-[4-(2-chloro-4-fluorophenyl)-piperazin-1-yl]-butyl}-3-ethyl-1,3-dihydro-2H-indol-2-one]
35 | 168 to 170 °C | CC1(CCCCN2CCN(c3ccc(Cl)cc3)CC2)C(=O)Nc2c(Cl)cc(Cl)cc21 (centres unmarked) [Example 128, 5,7-dichloro-3-{4-[4-(4-chlorophenyl)-piperazin-1-yl]-butyl}-3-methyl-1,3-dihydro-2H-indol-2-one]
